Data on three molecules can be found in EP0225522A1, “Imidazopyridazine alkene carboxamides, process for their preparation, intermediate products and their preparation” (BAYER AG, priority 1985, dated 1987).

Molecules are shown by their SMILES.

The experiment relates to männliche Ratten. Kind of experiment: Diuretic and saluretic effect in fasted male rats: urine and electrolyte excretion over 6 hours in metabolism cages. In kind it is in vivo, Ratten (SPF. Conditions: 100 mg/kg p.o. in 10 ml/kg Tylose-Suspension, excretion over 6 Stunden, fasted male Wistar rats; for K^+ / Na^+: flame photometer. The protocol: Die pharmakologische Wirkung der erfindungsgemäßen Verbindungen wurden nach folgender Testmethode ermittelt: Nüchterne männliche Ratten im Gewicht von 150 bis 250 g (SPF, Wistar, je n=4 Paare) werden mit 10 ml/kg p.o. Tylose-Suspension (0,5 X) als Kontrollen bzw. mit 100 mg/kg p.o. Prüfsubstanz in 10 ml/kg p.o. Tylose-Suspension mittels Schlundsonde behandelt. Die Tiere werden in Stoffwechselkäfige gebracht und die Harn- und Elektrolytauscheidung über 6 Stunden bestimmt (Na^4 und K^4 Bestimmung: IL-Flammenphotometer).

Turning to `CN1CCN(c2ccc3nc(-c4ccccc4)c(/C=C/C(=O)N4CCCCC4)n3n2)CC1` [Beispiel 33], the Harn was determined as 26 mL/kg, the “K^+” value worked out at 450 µmol/kg and the “Na^+” value is listed as 3400 µmol/kg.
In the same order, the values of `CCN(CC)C(=O)/C=C/c1c(-c2ccccc2)nc2ccc(N3CCN(C)CC3)nn12` [Beispiel 35] are 21 mL/kg, 800 µmol/kg and 3100 µmol/kg.
For `Cc1ccc2nc(-c3ccccc3)c(/C=C/C(=O)N3CCCCC3)n2n1` [Beispiel 14], the Harn was found to be 25 mL/kg, the “K^+” value was 900 µmol/kg and the “Na^+” value is reported as 2900 µmol/kg.
